Experimental data published in patent US20140056835A1, “COSMETIC COMPOSITION FOR SKIN WHITENING COMPRISING SMALL MOLECULE-PEPTIDE CONJUGATE” (AE KYUNG INDUSTRIAL CO., LTD., priority 2012, published 2014).

Columns and labels:
[1] = test system: B16F1 melanoma cells; test: Test for inhibitory effect on melanin production; type: cell-based; settings: sample 50 uM, incubated for 2 days; for inhibition at 50 µM: Mus musculus, B16-F1, 48 h, read-out: Melanin production inhibition rate (%)
Description: Inhibitory effect on melanin formation was measured using B16F1 melanoma cells. B16F1 melanoma cells were inoculated into a 6-well plate at a density of 3×10^5 (cells/well) with DMEM containing 10% FBS. […] After 2 days, the medium was removed and the cells were washed with PBS (phosphate buffered saline), treated with trypsin, and then retrieved. The retrieved cells were centrifuged and the supernatant was discarded. Intracellular melanin was obtained by treating the cells with 0.2 ml of 1N NaOH+10% DMSO solution. The collected cells were transferred to a 96-well plate and absorbance was measured at 490 nm. The amount of intracellular melanin was estimated using standard curve with synthetic melanin as a standard substance. The amount of protein was quantified via absorbance measurement using a protein assay reagent. For the amount of melanin produced, the amount of melanin for a given protein was estimated.

[2] = molecular target: T1, Tyrosinase (Agaricus bisporus, UniProt C7FF04); test: Test for inhibitory effect on tyrosinase activity (dopachrome absorbance at 475 nm); type: biochemical, mushrooms; settings: L-tyrosine substrate, 10 min at 37° C.; for inhibition at 50 µM / inhibition at 100 µM: read-out: Tyrosinase activity inhibition rate (%)
T1 construct: purchased Sigma; host or cells: natural source: mushrooms
T1 sequence (C7FF04 1-392 limits assumed): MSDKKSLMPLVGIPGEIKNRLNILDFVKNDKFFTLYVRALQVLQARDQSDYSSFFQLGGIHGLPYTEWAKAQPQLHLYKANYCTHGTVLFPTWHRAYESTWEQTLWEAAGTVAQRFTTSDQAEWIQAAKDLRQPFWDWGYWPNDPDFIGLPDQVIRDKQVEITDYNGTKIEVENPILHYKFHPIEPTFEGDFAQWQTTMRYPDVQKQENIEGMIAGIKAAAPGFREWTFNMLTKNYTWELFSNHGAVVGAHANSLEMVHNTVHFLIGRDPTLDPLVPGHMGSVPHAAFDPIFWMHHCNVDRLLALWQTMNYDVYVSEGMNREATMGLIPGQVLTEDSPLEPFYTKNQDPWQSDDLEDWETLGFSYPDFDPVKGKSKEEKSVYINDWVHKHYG

[3] = test system: skin; settings: in vivo

Compound	inhibition at 50 µM ([2]; sample 50 uM) [%]	inhibition at 100 µM ([2]; sample 100 uM) [%]	inhibition at 50 µM [1] [%]	Melanin production inhibition rate (%) [1] [%]	Tyrosinase activity inhibition rate (%) ([2]; sample 50 uM)	Tyrosinase activity inhibition rate (%) ([2]; sample 100 uM)	Degree of irritation [3]	Skin irritation [3]
CC(C)C[C@H](NC(=O)/C=C/c1ccc(O)c(O)c1)C(=O)NCC(N)=O [Caffeic acid-LG-NH2, Caffeic acid-Leu-Gly-NH2]	–	–	–	41	24.2	26.8	None	no irritation
CC(C)C[C@H](NC(=O)/C=C/c1ccc(O)cc1)C(=O)NCC(N)=O [Coumaric acid-LG-NH2, Coumaric acid-Leu-Gly-NH2]	–	–	–	45.3	25.1	34.8	None	no irritation

Now from value to compound, other results behind:

inhibition at 50 µM ([2]; sample 50 uM) [%]	inhibition at 100 µM ([2]; sample 100 uM) [%]	Compound	inhibition at 50 µM [1] [%]	Melanin production inhibition rate (%) [1] [%]	Tyrosinase activity inhibition rate (%) ([2]; sample 50 uM)	Tyrosinase activity inhibition rate (%) ([2]; sample 100 uM)	Degree of irritation [3]	Skin irritation [3]
9.2	14.4	OC[C@H]1O[C@@H](Oc2ccc(O)cc2)[C@H](O)[C@@H](O)[C@@H]1O [Arbutin]	18	–	–	–	–	–
–	21.3	O=C(O)/C=C/c1ccc(O)c(O)c1 [Caffeic acid]	16	–	–	–	–	–
21.3	24.6	O=C(O)/C=C/c1ccc(O)cc1 [Coumaric acid]	23	–	–	–	–	–
